Experimental data reported in patent US20180325850A1 (The Regents of the University of Michigan, priority 2017, published 2018).

What was measured:
Format in all cases: in vivo, rat
[1] = system: MI rats generated by ischemia reperfusion; assay: Echocardiography of heart function (EF, FS) after ischemia reperfusion MI
Protocol: 24 h post coronary ligation, a MI size of 33.59±3.54% of the left ventricle was induced in rats. […] Left ventricular internal diameter end diastole (LVIDd) and end systole (LVIDs) were measured perpendicularly to the long axis of the ventricle. EF and FS were calculated according to LVIDd and LVIDs.

IR rats [2] = assay: Plasma biochemical assay of LDH and creatine kinase (MI injury biomarkers); conditions: 24 h after VPA treatment
Protocol: To determine the possible protective effect of VPA after MI, MI rats were generated by ischemia reperfusion and VPA was administrated to the animals. […] Intra-peritoneal injection of 250 mg/kg VPA was conducted immediately after and 12 h after coronary ligation. Heart functional assays, MI assessment, and physiological assays were performed 24 h after VPA administration.

Foxm1 = assay: RNA-seq of whole hearts one day after IR
Text: Recent studies indicate that neonatal CMs proliferate much more potently than adult CMs and Foxm1 appears to be a key factor in regulating neonatal CM proliferation by controlling Igf1 and cell cycle genes (Ref. 44; incorporated by reference in its entirety). […] These genes are mostly proliferation related genes. Other potential targets include anti-oxidative, pro-fibrotic, and CM structural genes. Foxm1 has also been reported to work with YAP1 to activate proliferation genes (Ref. 46; incorporated by reference in its entirety).

[3] = system: MI rats generated by ischemia reperfusion; assay: Myocardial infarct size by triphenyltetrazolium chloride (TTC) staining; conditions: two shots of VPA within 24 h of IR injury; versus saline controls
Protocol: Myocardial infarct size was determined by triphenyltetrazolium chloride (TTC) staining. The hearts were frozen rapidly and sliced into five 2 mm transverse sections. The sections were incubated at 37° C. with 1% TTC in phosphate buffer (pH 7.4) for 10 min, fixed in 10% formaldehyde solution, photographed and calculated using ImageJ software. The infarct size was expressed as a percentage of infarct volume versus left ventricle volume.

IR rats [4] = assay: Long-term (4-week) oral VPA treatment of IR rats, EF and FS; conditions: oral VPA 250 mg/kg twice daily for 4 weeks, versus IR control animals
Protocol: In addition, long-term (4-week) treatment of VPA was performed to IR rats.

[5] = IR rats, 250 mg/kg VPA intra-peritoneal immediately after and 12 h after coronary ligation, echocardiography at 24 h

Compound: CCCC(CCC)C(=O)O [VPA, valproic acid]
- fractional shortening (FS) [1, 5]: 33.21±4.46%
- left ventricle ejection fraction (EF) [1, 5]: 60.60±6.18%
- rescue of the functional loss caused by acute IR injury ([1]; VPA treatment within 12 h of IR injury, from EF and FS): roughly 50%
- plasma LDH release (IR rats [2]): 63.07±23.83 U/L
- plasma creatine kinase (CK) release (IR rats [2]): 158.31±43.53 U/L
- Foxm1 expression, IR+VPA group versus no IR group (Foxm1): 8 fold
- reduction of infarct size [3]: around 45%
- effect on ventricular remodeling and pumping function (EF, FS) (IR rats [4]): protected the MI hearts from ventricular remodeling and weakening of the pumping function
